This passage reports IC50 results from patent US6723753B2, “Substituted n-benzyl-n-phenyl aminoalcohol compounds useful for inhibiting cholesteryl ester transfer protein activity” (Pharmacia Corporation, priority 2002, dated 2004).

In one assay the target is T1, CETP (Homo sapiens, UniProt P11597).
T1 sequence (P11597 18-493): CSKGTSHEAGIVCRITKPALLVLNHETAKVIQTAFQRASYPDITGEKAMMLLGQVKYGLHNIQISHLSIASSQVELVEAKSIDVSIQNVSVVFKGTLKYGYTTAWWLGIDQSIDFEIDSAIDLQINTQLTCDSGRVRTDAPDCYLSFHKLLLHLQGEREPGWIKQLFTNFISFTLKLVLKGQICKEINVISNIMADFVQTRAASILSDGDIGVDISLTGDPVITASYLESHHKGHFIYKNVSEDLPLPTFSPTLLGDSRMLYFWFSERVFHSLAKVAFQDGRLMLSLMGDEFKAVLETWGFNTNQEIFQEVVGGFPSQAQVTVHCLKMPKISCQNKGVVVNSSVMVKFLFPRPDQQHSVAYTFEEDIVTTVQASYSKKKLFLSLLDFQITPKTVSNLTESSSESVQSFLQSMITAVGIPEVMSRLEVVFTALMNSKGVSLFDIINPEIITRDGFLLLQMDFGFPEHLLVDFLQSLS
The experiment in a line: Assay of CETP Inhibition using Purified Components (Reconstituted Buffer Assay). To be noted: IC50, Inhibition of CETP activity in reconstituted buffer assay; transfer of [3H]CE from HDL to LDL. Set-up: made in house; host or cells: CHO cells (serum-free conditioned medium). It is filed as biochemical. The method, then: Assay of CETP Inhibition using Purified Components (Reconstituted Buffer Assay)
The ability of compounds to inhibit CETP activity was assessed using an in vitro assay that measured the rate of transfer of radiolabeled cholesteryl ester ([^3H]CE) from HDL donor particles to LDL acceptor particles. Details of the assay are provided by Glenn, K. C. et al. (Glenn and Melton, “Quantification of Cholesteryl Ester Transfer Protein (CETP): A) CETP Activity and B) Immunochemical Assay of CETP Protein,” Meth. Enzymol., 263, 339-351 (1996)). Human recombinant CETP can be obtained from the serum-free conditioned medium of CHO cells transfected with a cDNA for CETP and purified as described by Wang, S. et al. (J. Biol. Chem. 267, 17487-17490 (1992)). To measure CETP activity, [^3H]CE-labeled-HDL, LDL, CETP and assay buffer (50 mM tris(hydroxymethyl)aminomethane, pH 7.4; 150 mM sodium chloride; 2 mM ethylenediamine-tetraacetic acid (EDTA); 1% bovine serum albumin) were incubated in a final volume of 200 μL, for 2 hours at 37° C. in 96 well plates. […] The inhibitors were then diluted 1:1 with CETP in assay buffer, and then 25 μL of that solution was mixed with 175 μL of lipoprotein pool for assay. Following incubation, LDL was differentially precipitated by the addition of 50 μL of 1% (w/v) dextran sulfate/0.5 M magnesium chloride, mixed by vortex, and incubated at room temperature for 10 minutes. A potion of the solution (200 μL) was transferred to a filter plate (Millipore). After filtration, the radioactivity present in the precipitated LDL was measured by liquid scintillation counting.
This value was defined as the IC50.
Examples of IC50 values determined by these methods are specified in Table 9.
In general, IC50 refers to the concentration that inhibits the measured activity by half. As to `Cc1cccc(N(Cc2cccc(C(F)(F)F)c2)CC(O)C(F)(F)F)c1` (stereo not shown) [Example 25], it took 10 µM to reach half-maximal inhibition (IC50).

In turn, `OC(CN(Cc1cccc(C(F)(F)F)c1)c1cccc(C(F)(F)F)c1)C(F)(F)F` (stereo not shown) [Example 47] gave a 50% inhibitory concentration (IC50) of 10 µM.

As for `OC(CN(Cc1ccc(OC(F)(F)F)cc1)c1cccc(F)c1)C(F)(F)F` (stereo not shown) [Example 57], the IC50 came out at 15 µM.

`OC(CN(Cc1cccc(Oc2ccccc2)c1)c1cccc(F)c1)C(F)(F)F` (stereo not shown) [Example 64] came in with an IC50 of 15 µM.

Compound `OC(CN(Cc1ccc(-c2ccccc2)cc1)c1cccc(F)c1)C(F)(F)F` (stereo not shown) [Example 65] registered an IC50 of 20 µM.

The assay is the same for the next values; noted with them: Inhibition of CETP activity in reconstituted buffer assay; transfer of [3H]CE from HDL to LDL; read-out: IC50.
As for `OC(CN(Cc1cccc(OC(F)(F)C(F)F)c1)c1cccc(S)c1)C(F)(F)F` (stereo not shown) [473B], the IC50 came to 42 µM.

`OC(CN(Cc1cccc(OC(F)(F)C(F)F)c1)c1cccc(CBr)c1)C(F)(F)F` (stereo not shown) [514D]: the IC50 is 15 µM.

Take `O=[N+]([O-])c1cccc(N(Cc2cccc(OC(F)(F)C(F)F)c2)CC(O)C(F)(F)F)c1` (stereo not shown) [528B]: the IC50 came to 11 µM.

Take `OC(CNc1cccc(Oc2ccccc2)c1)C(F)(F)F` (stereo not shown) [588B]: the IC50 was above 100 µM.

As for `CON(C)C(=O)c1cccc(CN(CC(O)C(F)(F)F)c2cccc(Oc3ccccc3)c2)c1` (stereo not shown) [620A], the IC50 was found to be 24.6 µM.

`OC(CNCc1cccc(OC(F)(F)F)c1)C(F)(F)F` (stereo not shown) [632A]: the IC50 is above 50 µM.

With `OC(CN(Cc1cccc(C(F)(F)F)c1)c1cccc(F)c1)C(F)(F)F` (stereo not shown) [Example 1, 3-[(3-fluorophenyl)[[3-(3-trifluoromethyl)phenyl]methyl]amino]-1,1,1-tri-fluoro-2-propanol], the 50% inhibitory concentration (IC50) is 38 µM.

As for `COc1cccc(N(Cc2ccc(C)cc2)CC(O)C(F)(F)F)c1` (stereo not shown) [Example 4], the IC50 stood at 60 µM.

For the compound `Cc1ccc(N(Cc2cccc(C)c2)CC(O)C(F)(F)F)cc1` (stereo not shown) [Example 5], the IC50 was above 100 µM.

Turning to `COc1ccc(N(Cc2ccc(C)cc2)CC(O)C(F)(F)F)cc1` (stereo not shown) [Example 6], the IC50 was above 100 µM.

Take `OC(CN(Cc1ccccc1)c1ccc(Cl)cc1)C(F)(F)F` (stereo not shown) [Example 7]: the IC50 was above 100 µM.

For `Cc1ccc(CN(CC(O)C(F)(F)F)c2ccc(C)cc2)cc1` (stereo not shown) [Example 8], the IC50 is above 100 µM.

Turning to `Cc1cccc(CN(CC(O)C(F)(F)F)c2cccc(Cl)c2)c1` (stereo not shown) [Example 9], the IC50 is above 100 µM.

For the compound `Cc1cccc(CN(CC(O)C(F)(F)F)c2cccc(C)c2)c1` (stereo not shown) [Example 11], the IC50 was above 100 µM.

On to `Cc1ccc(CN(CC(O)C(F)(F)F)c2cccc(C)c2)cc1` (stereo not shown) [Example 12], for which the IC50 is above 100 µM.

Turning to `Cc1ccc(CN(CC(O)C(F)(F)F)c2ccccc2C)cc1` (stereo not shown) [Example 13], the IC50 was above 100 µM.

On to `Cc1ccc(N(Cc2ccccc2)CC(O)C(F)(F)F)cc1` (stereo not shown) [Example 14], for which the IC50 worked out at 60 µM.

`Cc1ccccc1N(Cc1ccccc1)CC(O)C(F)(F)F` (stereo not shown) [Example 15]: the IC50 was above 100 µM.

As for `OC(CN(Cc1ccccc1)c1cccc(Cl)c1)C(F)(F)F` (stereo not shown) [Example 16], the IC50 turned out to be 60 µM.

Consider `Cc1cccc(CN(CC(O)C(F)(F)F)c2ccc(F)c(F)c2)c1` (stereo not shown) [Example 17], for which the IC50 was determined as 45 µM.

Consider `OC(CN(Cc1cccc(C(F)(F)F)c1)c1ccc(F)c(F)c1)C(F)(F)F` (stereo not shown) [Example 19], for which the IC50 was 15 µM.

With `COc1ccc(N(Cc2ccc(C(F)(F)F)cc2)CC(O)C(F)(F)F)cc1` (stereo not shown) [Example 23], the IC50 amounted to 15 µM.

Consider `Cc1ccc(CN(CC(O)C(F)(F)F)c2ccc(F)c(F)c2)cc1` (stereo not shown) [Example 24], for which the IC50 was above 100 µM.

For the compound `COc1cccc(N(Cc2ccc(C(F)(F)F)cc2)CC(O)C(F)(F)F)c1` (stereo not shown) [Example 26], the IC50 was determined as 8 µM.

Regarding `Cc1cccc(CN(CC(O)C(F)(F)F)c2ccccc2C)c1` (stereo not shown) [Example 27], the IC50 was above 100 µM.

As for `COc1ccc(N(Cc2cccc(C)c2)CC(O)C(F)(F)F)cc1` (stereo not shown) [Example 28], the IC50 is 75 µM.

`Cc1ccc(CN(CC(O)C(F)(F)F)c2cc(F)cc(F)c2)cc1` (stereo not shown) [Example 29]: the IC50 is above 100 µM.

For `OC(CN(Cc1cccc(C(F)(F)F)c1)c1cccc(Br)c1)C(F)(F)F` (stereo not shown) [Example 30], the IC50 was 22 µM.

In the case of `Cc1ccc(N(Cc2ccc(C(F)(F)F)cc2)CC(O)C(F)(F)F)cc1` (stereo not shown) [Example 37], the IC50 was above 100 µM.

Turning to `OC(CN(Cc1cccc(C(F)(F)F)c1)c1cccc(Cl)c1)C(F)(F)F` (stereo not shown) [Example 38], the IC50 was 13 µM.

Regarding `Cc1cccc(N(Cc2ccc(C(F)(F)F)cc2)CC(O)C(F)(F)F)c1` (stereo not shown) [Example 39], the IC50 was 15 µM.

In the case of `Cc1ccccc1N(Cc1ccc(C(F)(F)F)cc1)CC(O)C(F)(F)F` (stereo not shown) [Example 40], the IC50 was above 100 µM.

On to `OC(CN(Cc1cccc(OC(F)(F)F)c1)c1cccc(Cl)c1)C(F)(F)F` (stereo not shown) [Example 41], for which the IC50 was found to be 12 µM.

As for `OC(CN(Cc1cccc(OC(F)(F)C(F)F)c1)c1cccc(I)c1)C(F)(F)F` (stereo not shown) [Example 44], the IC50 was found to be 2.7 µM.

As to `OC(CN(Cc1cccc(F)c1)c1cccc(C(F)(F)F)c1)C(F)(F)F` (stereo not shown) [Example 46], the half-inhibitory concentration (IC50) is above 100 µM.

`COc1cccc(N(Cc2cccc(C(F)(F)F)c2)CC(O)C(F)(F)F)c1` (stereo not shown) [Example 48]: the IC50 is above 100 µM.

Consider `OC(CN(Cc1ccc(C(F)(F)F)cc1)c1cccc(Cl)c1)C(F)(F)F` (stereo not shown) [Example 50], for which the IC50 amounted to 15 µM.

In the case of `COc1ccc(N(Cc2cccc(C(F)(F)F)c2)CC(O)C(F)(F)F)cc1` (stereo not shown) [Example 51], the IC50 stood at 20 µM.

As for `OC(CN(Cc1cccc(C(F)(F)F)c1)c1ccc(F)c(C(F)(F)F)c1)C(F)(F)F` (stereo not shown) [Example 52], the IC50 was 7 µM.

With `Cc1ccc(CN(CC(O)C(F)(F)F)c2ccc(F)c(C(F)(F)F)c2)cc1` (stereo not shown) [Example 53], the IC50 was 15 µM.

For `OC(CN(Cc1ccc(OC(F)(F)F)cc1)c1cccc(C(F)(F)F)c1)C(F)(F)F` (stereo not shown) [Example 54], the IC50 was 15 µM.

In the case of `OC(CN(Cc1ccc(OC(F)(F)F)cc1)c1cccc(Cl)c1)C(F)(F)F` (stereo not shown) [Example 55], the IC50 stood at 20 µM.

In the case of `OC(CN(Cc1ccc(OC(F)(F)F)cc1)c1ccc(F)c(F)c1)C(F)(F)F` (stereo not shown) [Example 56], the IC50 turned out to be 20 µM.

For `Cc1cccc(CN(CC(O)C(F)(F)F)c2ccc(F)c(C(F)(F)F)c2)c1` (stereo not shown) [Example 58], the IC50 is 15 µM.

Turning to `OC(CN(Cc1ccc(OC(F)(F)F)cc1)c1ccccc1)C(F)(F)F` (stereo not shown) [Example 59], the IC50 was determined as 7 µM.

On to `Cc1cccc(N(Cc2ccc(OC(F)(F)F)cc2)CC(O)C(F)(F)F)c1` (stereo not shown) [Example 61], for which the IC50 is 23 µM.

As for `OC(CN(Cc1ccc(OC(F)(F)F)cc1)c1cccc(Br)c1)C(F)(F)F` (stereo not shown) [Example 62], the IC50 was 18 µM.

On to `Cc1cccc(CN(CC(O)C(F)(F)F)c2ccc(Cl)c(C(F)(F)F)c2)c1` (stereo not shown) [Example 67], for which the IC50 is 15 µM.

Take `OC(CN(Cc1ccc(OC(F)(F)F)cc1)c1cc(F)cc(F)c1)C(F)(F)F` (stereo not shown) [Example 68]: the IC50 was 15 µM.

On to `OC(CN(Cc1cccc(C(F)(F)F)c1)c1cccc(F)c1F)C(F)(F)F` (stereo not shown) [Example 69], for which the IC50 is 20 µM.

As for `Cc1cccc(N(Cc2cccc(OC(F)(F)F)c2)CC(O)C(F)(F)F)c1` (stereo not shown) [Example 72], the IC50 is 10 µM.

As to `OC(CN(Cc1cccc(OC(F)(F)F)c1)c1ccccc1)C(F)(F)F` (stereo not shown) [Example 73], the IC50 was determined as 3 µM.

`OC(CN(Cc1cccc(OC(F)(F)F)c1)c1ccc(F)c(F)c1)C(F)(F)F` (stereo not shown) [Example 78]: the IC50 was 10 µM.
